One series relates to PRKG2. To be noted: previous activation data (Campbell 2017; Vaandrager 1997; Pohler 1995); cited from earlier work.
For series [1] the following is noted: pH 9. As for the experimental part: To make hydrophobic CNP salts, including CNP variants, CNP-acetate is placed into water or a buffer. In a first experiment, a stock solution comprising CNP at 20 mg/mL in water was prepared. […] Disodium pamoic acid, oleic acid, or sodium docusate were placed in a buffer at a concentration that is in a molar excess to the number of oppositely charged groups on CNP, in this instance a 12 molar excess of counterion to CNP. CNP has 6 positively charged groups at pH 7, and this is a two-fold excess over the number of positively charged groups.

For series [2] the following is noted: cited from earlier work.
The test system of series [3] is mouse model of Cardiofaciocutaneous syndrome using a Braf mutation (p.Q241R). To be noted: in vivo; cited from earlier work.
The target in the next series is T1, NPR2 (Rattus norvegicus, UniProt P16067).
T1 construct: endogenous in cells; host or cells: RCS (rat chondrosarcoma) cells, wild-type and NPR2+/- clones
T1 sequence (P16067 17-1047): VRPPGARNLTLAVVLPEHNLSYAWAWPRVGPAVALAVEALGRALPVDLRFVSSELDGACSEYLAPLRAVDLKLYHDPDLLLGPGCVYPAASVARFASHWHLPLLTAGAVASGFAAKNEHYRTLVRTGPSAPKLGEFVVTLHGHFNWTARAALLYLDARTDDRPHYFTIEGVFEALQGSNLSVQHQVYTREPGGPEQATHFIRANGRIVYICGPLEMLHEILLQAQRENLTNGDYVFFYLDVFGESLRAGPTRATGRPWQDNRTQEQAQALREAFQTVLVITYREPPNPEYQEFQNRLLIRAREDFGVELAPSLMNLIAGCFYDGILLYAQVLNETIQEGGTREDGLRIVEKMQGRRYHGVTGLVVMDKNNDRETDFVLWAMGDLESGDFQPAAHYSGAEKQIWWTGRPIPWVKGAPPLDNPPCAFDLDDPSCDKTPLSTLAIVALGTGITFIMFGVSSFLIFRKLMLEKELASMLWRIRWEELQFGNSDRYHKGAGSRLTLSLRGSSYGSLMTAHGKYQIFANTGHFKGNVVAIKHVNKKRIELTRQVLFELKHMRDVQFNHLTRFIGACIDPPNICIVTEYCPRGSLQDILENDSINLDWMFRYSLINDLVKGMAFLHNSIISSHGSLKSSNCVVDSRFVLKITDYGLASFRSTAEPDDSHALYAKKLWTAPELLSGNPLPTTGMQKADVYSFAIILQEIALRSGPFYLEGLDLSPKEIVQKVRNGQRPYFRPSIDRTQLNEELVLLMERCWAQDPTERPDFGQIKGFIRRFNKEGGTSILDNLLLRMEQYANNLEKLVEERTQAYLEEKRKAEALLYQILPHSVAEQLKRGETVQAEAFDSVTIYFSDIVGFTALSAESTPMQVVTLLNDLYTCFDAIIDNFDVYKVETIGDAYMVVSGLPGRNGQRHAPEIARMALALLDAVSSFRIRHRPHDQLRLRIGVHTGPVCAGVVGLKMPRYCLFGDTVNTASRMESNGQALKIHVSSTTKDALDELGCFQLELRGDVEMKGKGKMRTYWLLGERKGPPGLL
In words: cGMP stimulation assay (CatchPoint Cyclic-GMP Fluorescent Assay) in NPR2 mutant RCS cells. The format is cell-based. As for the experimental part:
To determine the effects of CNP on subjects with short stature resulting from NPR2 mutations, cellular models of NPR2 mutations were developed. Exemplary NPR2 mutations analyzed are set out in FIG. 5. Rat chondrosarcoma (RCS) cells having either a knockout of, or heterozygous loss of function mutations in, the NPR2 gene were made by RNP transfection into RCS cells using 125 ng NPR2 variants or wild-type NPR2 plasmid DNA transfected into RCS or HEK293 cells. Single cell clones were seeded and genotyped by Sanger sequencing. Cell models are able to reproduce published cGMP phenotypes of the different mutations.
The NPR2 clones were created by creating insertions and deletions in the first exon of NPR2 in RCS cells. The sequence of the first exon in NPR2 was confirmed by next-generation sequencing and is set out in FIG. 4. NPR2 mutant cells were tested for activity in response to CNP administration by a cGMP stimulation assay using a CatchPoint Cyclic-GMP Fluorescent Assay after treatment with 6 nM of Pro-Gly CNP37. Briefly, NIH3T3 cells (ATCC, CRL-1658) and NPR-transfected HEK293 cells were seeded at 60,000 cells/well in a 96-well plate (96-well black imaging plates, Grenier, #655090). RCS (rat chondrosarcoma) cells were seeded at 40,000 cells/well. Culture media was as follows: NIH3T3 culture media: DMEM high glucose, pyruvate (Thermo, 11995-073)+10% FBS+1× Pen Strep (abbrev P/S, Thermo, cat #15140122). NIH3T3 was the control system for the cGMP assay HEK293 culture media: EMEM+10% FBS+1×P/S+1×GMAX. RCS culture media: DMEM+10% FBS+1× Pen Strep. Serum free NIH3T3 media: DMEM+1×P/S for treatment of cells with IBMX (CAS 28822-58-4); Serum free NIH3T3 media with BSA: DMEM+1×P/S+0.5 mg/mL BSA (Thermo, A9418-100G) for treatment of cells with CNP.
Cells were incubated for 24 hours at 37° C., 5% CO2. For cells to be treated with CNP variants, plates were pre-treated with IBMX (Enzo life sciences, 89161-340, 1 g) 15 minutes prior to use. IBMX is a potent, non-specific inhibitor of phosphodiesterases. An 800 mM stock solution of IBMX is diluted in IBMX dilution media (serum-free media (DMEM+[…] mixed 1:1 with 1×PBS) to a 0.75 mM working stock.
For cell treatment, cells were removed from the incubator, growth media was removed from cells and cells treated with IBMX. 80 μL 0.75 mM IBMX was added to each well and cells returned to 37° C. incubator for 15 minutes. […]
The cGMP assay was carried out using a cGMP calibrator, rabbit anti-cGMP antibody and HRP-cGMP prepared as according to manufacturer's protocol. 40 μL of calibrator was added to wells of an anti-cGMP antibody coated plated, and 40 μL of lysate to be analyzed added to the appropriate wells. […] The plate was read for fluorescence intensity on a Spectramax M, or similar instrument, at excitation 530 nm and emission at 590 nm.

The test system of series [4] is mice deficient in Nf1 in type II collagen producing cells. As to conditions: daily injections; cited from earlier work.
For another series, the target named is T2, NPR—B (Homo sapiens, UniProt P20594).
T2 sequence (P20594 23-1047): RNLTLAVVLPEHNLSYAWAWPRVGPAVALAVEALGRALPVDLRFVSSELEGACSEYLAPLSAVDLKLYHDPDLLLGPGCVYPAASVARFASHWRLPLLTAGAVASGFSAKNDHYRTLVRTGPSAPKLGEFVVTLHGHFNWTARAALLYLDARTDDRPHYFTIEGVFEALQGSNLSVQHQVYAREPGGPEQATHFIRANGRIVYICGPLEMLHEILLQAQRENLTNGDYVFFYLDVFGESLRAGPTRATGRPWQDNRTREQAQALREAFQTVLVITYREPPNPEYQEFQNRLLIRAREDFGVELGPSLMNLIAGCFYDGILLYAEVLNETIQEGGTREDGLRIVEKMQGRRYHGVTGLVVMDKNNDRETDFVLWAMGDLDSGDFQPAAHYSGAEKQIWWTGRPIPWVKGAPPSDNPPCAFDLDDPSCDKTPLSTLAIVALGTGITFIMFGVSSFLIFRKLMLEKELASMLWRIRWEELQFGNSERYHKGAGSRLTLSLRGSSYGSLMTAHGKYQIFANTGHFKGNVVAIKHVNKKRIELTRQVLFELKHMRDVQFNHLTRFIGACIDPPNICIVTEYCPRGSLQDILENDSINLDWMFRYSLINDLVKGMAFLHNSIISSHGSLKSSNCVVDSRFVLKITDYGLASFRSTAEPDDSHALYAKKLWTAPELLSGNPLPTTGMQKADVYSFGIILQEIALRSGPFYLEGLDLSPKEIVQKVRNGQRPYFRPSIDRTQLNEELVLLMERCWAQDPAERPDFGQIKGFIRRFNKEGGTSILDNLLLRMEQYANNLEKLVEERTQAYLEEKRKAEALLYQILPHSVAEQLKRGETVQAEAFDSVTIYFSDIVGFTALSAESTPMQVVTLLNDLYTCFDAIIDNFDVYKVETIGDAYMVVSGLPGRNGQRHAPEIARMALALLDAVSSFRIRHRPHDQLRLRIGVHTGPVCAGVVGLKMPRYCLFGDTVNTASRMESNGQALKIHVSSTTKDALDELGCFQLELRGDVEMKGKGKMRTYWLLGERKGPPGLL
As to conditions: cited from earlier work.

Where no end group is shown, it is not given here. Bounds are passed on as bounds.

By EC50 is commonly meant the midpoint of the concentration-response curve. For `Nc1nc2c(ncn2[C@@H]2O[C@@H]3COP(=O)(O)O[C@H]3[C@H]2O)c(=O)[nH]1` [cGMP, guanosine 3′,5′ cyclic monophosphate], the EC50 in the series with PRKG2 is 40 to 360 nM.
Consider `O=C(O)c1cc2ccccc2c(Cc2c([O-])c(C(=O)O)cc3ccccc23)c1[O-].[Na+].[Na+]` [disodium pamoic acid], for which the solubility of counterion result in series [1] was “soluble”.
`CCCCCCCC/C=C\CCCCCCCC(=O)O` [oleic acid]: in series [1], the solubility of counterion entry is given as “soluble”. Besides, the pKa in series [2] is 4-5.
`CCCCC(CC)COC(=O)CC(C(=O)OCC(CC)CCCC)S(=O)(=O)[O-].[Na+]` (centres unmarked) [sodium docusate]: in series [1], the solubility of counterion entry is reported as “soluble”.
For the compound “CNP: C-type natriuretic peptide; in the cGMP assay cells were treated with Pro-Gly CNP37 (PGQEHPNARKYKGANKKGLSKGCFGLKLDRIGSMSGLGC; not fully specified (N-terminus, C-terminus); ends and bridges not checked)”, the body length entry in series [3] is “increases in body length”. Moreover, the “rescue of NPR2 signaling” value in the series with NPR2 (cell model of NPR2 haploinsufficiency, exogenous CNP) is given as “dose-dependent rescue of NPR2 signaling”. The “CNP dose able to achieve an intracellular cGMP concentration exceeding the EC50 range for PRKG2 activation” value with NPR2 (heterozygous NPR2 knockout cells) is over 0.163 nM. For the same compound, the “CNP dose able to achieve the same cGMP concentration” value in the series with NPR2 (wild-type cells) was determined as 0.040 nM. In series [4], the ERK phosphorylation result was “decreased ERK phosphorylation” and the short stature result is reported as “corrected the short stature”.
In the case of “DLRVDTKSRAAWARLLQEHPNARKYKGANKKGLSKGCFGLKLDRIGSMSGLGC [CNP-53]”, the “binding to NPR—B” value with NPR—B is recorded as “bind similarly”.
For GLSKGCFGLKLDRIGSMSGLGC [CNP-22], the “binding to NPR—B” value with NPR—B is listed as “bind similarly”.
For “PGQEHPNARKYKGANKKGLSKGCFGLKLDRIGSMSGLGC (not fully specified (N-terminus, C-terminus); cysteine pairing not given here) [Pro-Gly-CNP37, CNP variant]”, the cGMP readout result with NPR2 (NPR2+/− rat chondrosarcoma cell model, exogenous peptide (FIG. 3)) was “rescues cGMP readout”.

The record behind these values is patent US20220280647A1, “Hydrophobic Peptide Salts for Extended Release Compositions” (BIOMARIN PHARMACEUTICAL INC., priority 2019, published 2022).
